This is an account of results in PMC7681098 (Theranostics, 2021).

Where two headings read alike, the source gives them in different places. Some results are limits rather than exact numbers.

Test [1] deals with FLT3 (Homo sapiens, UniProt P36888). Briefly: Cellular thermal shift assay (CETSA / ITDRF CETSA) in MV4-11 cells. The class given is binding. As to the method: (§1) All studies were performed with the Super Streptavidin (SSA) biosensors (CA, USA). All binding experiments were performed according to the manufacturer's instructions. For the cellular thermal shift assay (CETSA), experiments were performed as described previously.
(§2) A concentration range from 0.3 nM to 1000 nM was defined (Figure 1B). […] CETSA has been used to identify FLT3-LT-171-861 interactions in live cell settings. […] We first verified that the inhibitor could stabilize FLT3 against denaturation using Western blot. […] An obvious thermal shift of the melting curve was detected in the LT-171-861-treated sample (Figure 1C). […] Accordingly, we identified 53 °C as the optimal temperature for isothermal […] fingerprint (ITDRF) CETSA.
(A) Chemical structure of LT-171-861. […] Data were then fitted to obtain KD value. […] Data were first normalized by setting the highest and lowest value in each set to 100% and 0% respectively. Data were obtained in the presence of the LT-171-861 (blue circle) as positive the control and DMSO (red square) as the negative control. All experiments were performed at three independent occasions and data are given as the mean ± SD. […] Cell viability was evaluated by MTT assay respectively. The IC50 values were calculated using nonlinear regression.
Target sequence in this assay (P36888 27-993, stated change not applied): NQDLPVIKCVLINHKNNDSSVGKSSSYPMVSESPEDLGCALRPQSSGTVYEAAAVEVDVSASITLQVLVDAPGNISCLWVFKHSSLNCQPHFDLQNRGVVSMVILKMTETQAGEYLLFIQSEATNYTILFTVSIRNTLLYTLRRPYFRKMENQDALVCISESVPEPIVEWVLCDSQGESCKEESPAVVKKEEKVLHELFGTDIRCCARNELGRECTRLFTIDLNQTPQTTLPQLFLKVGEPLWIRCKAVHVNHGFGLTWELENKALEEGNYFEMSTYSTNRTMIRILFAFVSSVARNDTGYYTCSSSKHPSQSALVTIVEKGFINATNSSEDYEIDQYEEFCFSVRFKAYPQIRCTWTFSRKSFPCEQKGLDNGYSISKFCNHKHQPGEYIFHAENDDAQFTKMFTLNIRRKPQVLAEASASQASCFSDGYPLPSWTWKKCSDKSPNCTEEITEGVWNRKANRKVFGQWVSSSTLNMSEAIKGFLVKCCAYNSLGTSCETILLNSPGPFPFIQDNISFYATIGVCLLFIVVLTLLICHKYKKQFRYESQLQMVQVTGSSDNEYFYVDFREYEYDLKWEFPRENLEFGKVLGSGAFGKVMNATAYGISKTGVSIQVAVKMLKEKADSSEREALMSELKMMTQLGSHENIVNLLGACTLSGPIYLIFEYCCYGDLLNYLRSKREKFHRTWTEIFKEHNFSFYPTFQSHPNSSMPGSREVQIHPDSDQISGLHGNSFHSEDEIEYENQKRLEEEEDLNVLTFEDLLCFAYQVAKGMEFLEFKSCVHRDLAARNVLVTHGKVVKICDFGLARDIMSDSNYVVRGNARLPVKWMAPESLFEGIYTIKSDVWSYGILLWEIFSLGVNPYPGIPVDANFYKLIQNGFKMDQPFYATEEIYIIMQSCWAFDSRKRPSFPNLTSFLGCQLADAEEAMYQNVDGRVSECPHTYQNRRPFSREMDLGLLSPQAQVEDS

Test [2] deals with T1, FLT3 (Homo sapiens, UniProt P36888).
T1 construct: The intracellular domain of FLT3 (residues 571-994) was cloned into pMal-c2X; MBP (N); made in house; host or cells: E. coli BL21
Briefly: Biolayer interferometry (BLI) binding assay. As to conditions: ForteBio Octet, 0.3 nM to 1000 nM. How it is done:
The intracellular domain of FLT3 (residues 571-994) was cloned into pMal-c2X containing an N-terminal MBP-tag with a TEV protease cleavage site. The recombinant vector was transformed into E. coli. BL21. Expression and purification of recombinant FLT3 were performed as described previously [25]-[27].
as §1, §2
T1 sequence (P36888 571-993 limits assumed): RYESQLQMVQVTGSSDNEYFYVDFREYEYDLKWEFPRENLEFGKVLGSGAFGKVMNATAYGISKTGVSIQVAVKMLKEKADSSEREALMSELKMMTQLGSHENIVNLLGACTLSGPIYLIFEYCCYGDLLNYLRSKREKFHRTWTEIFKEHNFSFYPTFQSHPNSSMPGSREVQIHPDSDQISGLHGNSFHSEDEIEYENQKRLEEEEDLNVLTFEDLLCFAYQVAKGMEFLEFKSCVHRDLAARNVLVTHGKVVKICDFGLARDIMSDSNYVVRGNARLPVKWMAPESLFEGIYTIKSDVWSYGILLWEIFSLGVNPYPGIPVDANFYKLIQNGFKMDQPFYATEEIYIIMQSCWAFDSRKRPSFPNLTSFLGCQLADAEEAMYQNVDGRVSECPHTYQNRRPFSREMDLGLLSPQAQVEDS
(A) Chemical structure of LT-171-861. […] Data were then fitted to obtain KD value. […] Data were first normalized by setting the highest and lowest value in each set to 100% and 0% respectively. […] Cell viability was evaluated by MTT assay respectively. The IC50 values were calculated using nonlinear regression.

The next test addresses FLT3 (ITD) (Homo sapiens, UniProt P36888, ITD). Briefly: biochemical.
For test [3], the system named is BaF3-transfected cells (FLT3-ITD-N676D, FLT3-ITD-F691L). The experiment in a line: Intravenous implantation of BaF3-transfected cells, survival. The test is classed as in vivo, BALB/c nude mice. Conditions: 10 mg/kg once every other day, 8 cycles. How it is done: (§3) Data were shown as mean±SD. […] Data were shown as mean±SD. (C) An engrafted tumor model was used to evaluate in vivo antitumor activity. The NOD/SCID mice were intravenously inoculated with MV4-11 cells. […] Log-rank testing was used to compare survival curves among treatment groups. […] (D) Apoptotic assays in engraft model were evaluated by TUNEL assay and cell proliferative activity was measured by Ki67 assay. Images were acquired at ×40 magnification. (E) BALB/c nude mice were subcutaneously inoculated with MV4-11 cells (5×10^6) and bodyweight of each mouse was recorded every other day. (F) Representative photo of tumors from BALB/c nude mice which were inoculated with MV4-11 cells. (G) BALB/c nude mice were subcutaneously inoculated with BaF3 cells bearing FLT3-ITD-N676D (n=6) and FLT3-ITD-F691L (n=6) respectively. […] (H) BALB/c mice were intravenously inoculated with cells used in (G). […] Log-rank testing was used to compare survival curves among treatment groups. […] (I) Representative photos of spleens dissected from mice in (H) inoculated with BaF3 cells bearing FLT-3-ITD-F691L.
(§4) Cells were injected into the tail vein of BALB/c nude mice and allowed to engraft for 5 days. […] This schedule was repeated for 8 cycles.

In the next test the test system is MV4-11. Briefly: Cell proliferation MTT assay. The class given is cell-based. As to conditions: Homo sapiens, 72 h, read-out: Human leukemia cell line IC50 MV4-11. How it is done:
(§5) The conditional medium (CM) was prepared from the supernatant of HS-5 cell culture for 5 days under normal culture conditions. At the indicated time point, cell viability was evaluated by MTT assay.

In a further test the test system is U937. Briefly: Cell proliferation MTT assay. The test is classed as cell-based. As to conditions: Homo sapiens, U-937, 72 h, wild-type FLT3, read-out: Human leukemia cell line IC50 U937. How it is done: as §5
For a further test, the system named is THP-1. The experiment in a line: Cell proliferation MTT assay. The class given is cell-based. Conditions: Homo sapiens, 72 h, wild-type FLT3, read-out: Human leukemia cell line IC50 THP-1. As to the method: as §5
A further test deals with MOLM13. The experiment in a line: Cell proliferation MTT assay. Conditions: Homo sapiens, MOLM-13, 72 h, read-out: Human leukemia cell line IC50 MOLM13. The test is classed as cell-based. As to the method:
as §5

The test system of test [4] is BaF3 cells with FLT3-D835Y. Briefly: Cell viability of transformed BaF3 cells. The test is classed as cell-based, murine. As to conditions: Mus musculus, read-out: BaF3 cells with FLT3 mutants IC50 D835Y. As to the method: (§6) Lentivirus packaging and construction of transformed BaF3 cells were performed as described previously. […] Supernatants were collected and used to infect BaF3 cells, and transduced BaF3 cells were selected with puromycin (1 μg/ml) to obtain stably transformed cells.
as §5

Test [5] relates to BaF3 cells with FLT3-ITD/F691L. Briefly: Cell viability of transformed BaF3 cells. The test is classed as cell-based, murine. As to conditions: Mus musculus, read-out: BaF3 cells with FLT3 mutants IC50 ITD-F691L. As to the method:
as §6, §5

Test [6] concerns BaF3 cells with FLT3-ITD/N676D. The experiment in a line: Cell viability of transformed BaF3 cells. The class given is cell-based, murine. Conditions: Mus musculus, read-out: BaF3 cells with FLT3 mutants IC50 ITD-N676D. How it is done:
as §6, §5

The test system of test [7] is BaF3 cells with FLT3-ITD/Y842C. The experiment in a line: Cell viability of transformed BaF3 cells. The class given is cell-based, murine. As to conditions: Mus musculus, read-out: BaF3 cells with FLT3 mutants IC50 ITD-Y842C. As to the method:
as §6, §5

Test [8] relates to BaF3 cells with FLT3-ITD/D835Y. The experiment in a line: Cell viability of transformed BaF3 cells. The class given is cell-based, murine. How it is done: as §6, §5
The subject of the next test is BaF3 cells with FLT3-ITD. Briefly: Cell viability of transformed BaF3 cells. The class given is cell-based, murine. Conditions: Mus musculus, read-out: BaF3 cells with FLT3 mutants IC50 ITD. As to the method:
as §6, §5

The next test deals with T2, ERK1 (Homo sapiens, UniProt P27361).
T2 construct: purchased Reaction Biology Corporation (PA, USA)
T2 sequence (P27361 whole entry): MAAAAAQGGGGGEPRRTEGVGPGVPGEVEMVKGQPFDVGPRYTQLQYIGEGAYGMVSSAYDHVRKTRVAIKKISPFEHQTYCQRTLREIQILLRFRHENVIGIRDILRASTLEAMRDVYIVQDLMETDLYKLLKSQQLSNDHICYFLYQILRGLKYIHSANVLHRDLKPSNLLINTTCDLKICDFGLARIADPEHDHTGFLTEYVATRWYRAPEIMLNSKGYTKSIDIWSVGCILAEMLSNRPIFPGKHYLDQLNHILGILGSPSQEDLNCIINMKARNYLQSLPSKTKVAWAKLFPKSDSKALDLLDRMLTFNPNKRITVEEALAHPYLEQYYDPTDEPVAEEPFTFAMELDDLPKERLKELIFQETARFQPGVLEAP
Briefly: Kinase inhibition assay (Reaction Biology). The test is classed as biochemical.

The test system of test [9] is BaF3 cells transfected with FLT3-ITD-N676D and FLT3-ITD-F691L. Briefly: Subcutaneous xenograft with transfected BaF3 cells. The class given is in vivo, BALB/c nude mice. Conditions: 10 mg/kg every other day for 16 days. How it is done:
as §3, §4

Sequence of FLT3 (ITD) (P36888 564-993, stated change not applied): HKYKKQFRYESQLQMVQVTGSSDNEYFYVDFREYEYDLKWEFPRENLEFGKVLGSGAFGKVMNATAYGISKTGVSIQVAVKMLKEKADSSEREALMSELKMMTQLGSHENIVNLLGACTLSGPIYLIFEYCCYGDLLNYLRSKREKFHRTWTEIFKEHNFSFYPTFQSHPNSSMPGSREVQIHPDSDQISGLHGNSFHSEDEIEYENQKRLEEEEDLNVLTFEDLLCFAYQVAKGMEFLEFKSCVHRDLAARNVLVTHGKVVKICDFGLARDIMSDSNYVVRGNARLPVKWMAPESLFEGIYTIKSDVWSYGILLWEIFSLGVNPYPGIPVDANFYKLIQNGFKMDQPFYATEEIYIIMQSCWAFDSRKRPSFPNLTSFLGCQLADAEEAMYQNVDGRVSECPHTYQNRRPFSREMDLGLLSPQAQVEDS

On to `CN1CCN(Cc2ccc(NC(=O)c3n[nH]cc3Nc3ncnc4[nH]ccc34)cc2)CC1` [LT-171-861], for which the Kd worked out at 78.5 nM on FLT3 [1] (1 h, 53 °C, read-out: fitted Kd value (ITDRF CETSA)) and 3.31 nM on FLT3 [2]. Also, the “apparent aggregation temperature (Tagg) for FLT3” value at FLT3 [1] (LT-171-861 10 µM 1 h, 49.11 °C without LT-171-861) was found to be 52.91 °C. For the same compound, the IC50 on FLT3 (ITD) was below 1 nM; against FLT3 (ITD) (10 μM ATP, 10-dose IC50 mode) it was 0.718 nM; with MV4-11, 1.8 nM; in the test with U937, 495 nM; in the test on THP-1, 504 nM; in the test with MOLM13, 1.3 nM. For the same compound, the concentration for half-maximal inhibition (IC50) amounted to 23.3 nM in test [4]; 7.65 nM in test [5]; 47.5 nM in test [6]; 18.8 nM in test [7]; 57.2 nM in [8] (Mus musculus, BaF3, cell viability, read-out: BaF3 cells with FLT3 mutants IC50 ITD-D835Y); 4.1 nM in the test on BaF3 cells with FLT3-ITD. Further, the concentration for half-maximal inhibition (IC50) at ERK1 is above 200 nM; at ERK1 (10 μM ATP, 10-dose IC50 mode) it was 1060 nM. In test [3], the survival versus vehicle entry is reported as “significant survival advantage”. Also, the “IC50 lower than that of sorafenib in cells bearing ITD-D835Y mutations” value in test [8] (BaF3 FLT3-ITD-D835Y) is on record as around 16 fold. Moreover, the tumor growth result in [9] is reported as “inhibited tumor growth”.
